US11083725B2 (priority 2014, dated 2021)
Entries after “also recorded” stand apart in the source; their conditions may differ. Read-outs that look alike come from different tables or passages of the source.

How the values were obtained:
CA09 [1] = assay: microbe, parasite or virus in culture; type: cell-based, influenza virus H1N1 strain A/CA/04/2009; details: for log reduction at 10 pM / log reduction at 0.0001 µM / log reduction at 0.001 µM / log reduction at 0.01 µM / log reduction at 0.1 µM / log reduction at 1 µM / log reduction at 10 µM / log reduction at 100 µM: NHBE, read-out: TCID50 (per mL); for Viral Titer Therapeutic: follow up validation titer, therapeutic treatment
CA09 [2] = assay: High-throughput modified TCID50 viral titer of drug-screen supernatant on MDCK cells (area under the curve); type: cell-based, influenza virus H1N1 strain A/CA/04/2009; details: supernatant of CA09-infected NHBE cells titrated on MDCK cells
NHBE cells [3] = assay: cells; type: cell-based, human; details: for IC50: Homo sapiens, NHBE
CA09 [4] = assay: In vivo drug tests in CA09-infected mice: weight loss, survival, lung viral titer; design: species or system C57/B6 mice; details: for weight loss / survival: mice infected intranasally with CA09; for weight loss: daily drug for 7 days from 2 days before infection (NVP-BEZ235 25 mg/kg oral gavage; clotrimazole 120 mg/kg ip; α-mangostin 8 mg/kg ip); for survival: daily drug for 7 days from 2 days before infection, monitored 15 days
[5] = Whole-body plethysmography of respiratory parameters in infected treated mice
[6] = Blood chemistry and blood cell counts in treated infected mice; type: in vivo, C57/B6 mice; details: 25 mg/kg daily oral gavage
Procedure: Referring to FIG. 9A-E, daily drug treatment was started 48 hours before intranasal infection with CA09 at an infectious dose of […] and maintained for 7 days. […] Data represent 3 mice per group.

NHBE cells [7] = assay: Seahorse metabolic flux (ECAR, OCR, PPR) in NHBE cells; type: cell-based, human; details: drug 4 hours then infection at 1 MOI with CA04, read 17 hours later
Procedure: OCR and ECAR were measured with the XF-24 Extracellular Flux Analyzer (Seahorse Bioscience, North Billerica, Mass.). Briefly, 2.5×10^5 cells/well were seeded with XF media (non-buffered DMEM with 25 mM glucose, 2 mM L-glutamine, and 1 mM sodium pyruvate) in a Cell-Tak (BD Biosciences, San Jose, Calif.)-coated plate 17 hours after infection and 1 hour before loading the plate into the instrument.
Referring to FIG. 6A-C, NHBE cells were grown and differentiated in 24-well Seahorse plates and left untreated (control), infected for 17 hours at MOI 1 with either viable virus or a […] virus (CA09 or BPL, respectively) or stimulated with TLR agonists lipopolysaccharide (LPS), polyinosinic polycytidylic acid (PolyIC), or Resiquimod (R848). After treatment, the extracellular acidification rate (ECAR) (6A), oxygen consumption rate (OCR) (6B), and proton production rate (PPR) (6C) of NHBE cells were monitored for 2 hours. Error bars represent standard deviation from the mean of triplicate samples, where data represent 3 independent experiments.
Referring to FIG. 12C-E, NHBE cells were seeded in XF24 SEAHORSE cell […] for 4 hours followed by infection at 1 MOI with CA04. 17 hours later plates were processed and read on Seahorse following manufactures protocol.

NHBE cells [8] = assay: Seahorse spare respiratory and glycolytic capacity of infected NHBE cells; type: cell-based, human; details: 10 nM BEZ235 for 1 hr, infected 17 hours at MOI 1 with CA04
PI3K/mTOR pathway = assay: Immunoblot of PI3K/mTOR pathway phosphorylation in infected NHBE cells; type: cell-based, human
cMyc = assay: Influenza-induced cMyc expression in NHBE cells; type: cell-based, human; details: NHBE cells infected with CA04 up to 17 hours at MOI 1
Procedure: Referring to FIG. 13B, NHBE cells were infected with CA04 for up to 17 hours at MOI 1, harvested at indicated time and RNA purified from lysates then quantified with […].

BMDCs [9] = assay: Isotopically labeled substrate utilization in bone marrow-derived dendritic cells; type: cell-based, mouse
BMDCs [10] = type: cell-based, mouse
[11] = infected mice, whole-body plethysmography

O=CC[C@@H](O)[C@H](O)[C@H](O)CO [2-deoxyglucose]
viral titer following therapeutic treatment (CA09 [1]; FIG. 12B, NHBE supernatant titered on MDCK cells): efficient at reducing viral load
log reduction at 10 pM (CA09 [1]): 0.94
log reduction at 0.0001 µM (CA09 [1]): 0.35
log reduction at 0.001 µM (CA09 [1]): 0.48
log reduction at 0.01 µM (CA09 [1]): 0.43
log reduction at 0.1 µM (CA09 [1]): 0.28
log reduction at 1 µM (CA09 [1]): 0.87
log reduction at 10 µM (CA09 [1]): 1.01
log reduction at 100 µM (CA09 [1]): 0.85
Viral Titer Therapeutic (CA09 [1]): Reduced
viral titers in the high-throughput screening (CA09 [2]): reduced
NHBE cell survival / cell death after infection (NHBE cells [3]): preferentially killed infected cells

O=C(Nc1cccc(Nc2ncc(Br)c(NCCc3cnc[nH]3)n2)c1)N1CCCC1 [BX-912]
Viral Titer Therapeutic (CA09 [1]): Reduced
viral titers in the high-throughput screening (CA09 [2]): reduced

Clc1ccccc1C(c1ccccc1)(c1ccccc1)n1ccnc1 [Clotrimazole]
Viral Titer Prophylactic (CA09 [1]): Reduced
viral titers in NHBE cells (validated drug hits) (CA09 [1]): consistently reduced; also recorded: consistent reduction
log reduction at 10 pM (CA09 [1]): 0.71
log reduction at 0.0001 µM (CA09 [1]): 0.85
log reduction at 0.001 µM (CA09 [1]): 0.84
log reduction at 0.01 µM (CA09 [1]): 0.7
log reduction at 0.1 µM (CA09 [1]): 0.48
log reduction at 1 µM (CA09 [1]): 0.95
log reduction at 10 µM (CA09 [1]): 0.9
log reduction at 100 µM (CA09 [1]): 1.07
Cell Death Prophylactic (NHBE cells [3]): C > V
NHBE cell survival / cell death after infection (NHBE cells [3]): differentially affected; also recorded: differential effects
weight loss (CA09 [4]): little effect
survival (CA09 [4]): little effect

O=C1Nc2ccc3ncsc3c2/C1=C/c1cnc[nH]1 [Imidazolo-oxindole C 16]
viral titers in the high-throughput screening (CA09 [2]): reduced
Cell Death Therapeutic (NHBE cells [3]): V > C

Cn1c(=O)n(-c2ccc(C(C)(C)C#N)cc2)c2c3cc(-c4cnc5ccccc5c4)ccc3ncc21 [NVP-BEZ235]
respiratory function ([5]; infected adult mice): augments
breath frequency [5, 11]: decreases
expiration time [5, 11]: increases
inspiration time [5, 11]: increases
mid-expiratory tidal flow [5, 11]: reduction
minute volume [5, 11]: decreases
tidal flow [5, 11]: decreases
tolerability [6]: well tolerated
blood amylase ([6]; bled on day 7): significantly altered
blood protein levels ([6]; bled on day 7): unchanged
dehydration as measured by blood electrolyte levels and renal function ([6]; bled on day 7): stable
immune cell proliferation in the blood ([6]; bled on day 7): no impact
signs of toxicity in the blood chemistry analysis or in critical blood cell counts ([6]; bled on day 7): no signs of toxicity
Viral Titer Prophylactic (CA09 [1]): Reduced
viral titers in NHBE cells (validated drug hits) (CA09 [1]): consistently reduced; also recorded: consistent reduction; also recorded: one of the most significant drops; also recorded: highest efficacy
log reduction at 10 pM (CA09 [1]): 0.75
log reduction at 0.0001 µM (CA09 [1]): 0.42
log reduction at 0.001 µM (CA09 [1]): 0.5
log reduction at 0.01 µM (CA09 [1]): 0.53
log reduction at 0.1 µM (CA09 [1]): 0.29
log reduction at 1 µM (CA09 [1]): 0.51
log reduction at 10 µM (CA09 [1]): 0.97
log reduction at 100 µM (CA09 [1]): 0.91
influenza induced metabolic flux (ECAR, OCR, PPR) (NHBE cells [7]): reverse influenza induced metabolic flux to untreated levels; also recorded: reversed
viral titers in the high-throughput screening (CA09 [2]): reduced
glycolytic capacity of infected NHBE (NHBE cells [8]): slightly reducing; also recorded: slightly reduces
spare respiratory capacity of infected NHBE (NHBE cells [8]): restores
Cell Death Prophylactic (NHBE cells [3]): C = V
Cell Death Therapeutic (NHBE cells [3]): C > V
NHBE cell survival / cell death after infection (NHBE cells [3]): differentially affected; also recorded: differential effects
viral titer from the lungs (HA titer) (CA09 [4]; four days following infection, NVP-BEZ235 25 mg/kg oral gavage, titered on MDCK cells, 25 mg/kg): significant reduction; also recorded: significantly lower
influenza-induced mortality (CA09 [4]; infected adult mice): reduces
weight loss (CA09 [4]): no significant effects; also recorded: no effect
survival (CA09 [4]): profound improvement; also recorded: dramatically improved
4E-BP1 phosphorylation (PI3K/mTOR pathway): completely abolished
70S6K phosphorylation (PI3K/mTOR pathway): completely abolished
mTOR phosphorylation (PI3K/mTOR pathway): reduces
phosphorylation of PRAS40 (PI3K/mTOR pathway): time dependent decrease
influenza-induced cMyc expression (cMyc): ablates

CCc1ccc(CCOc2ccc(CC3SC(=O)NC3=O)cc2)nc1 (centres unmarked) [Pioglitazone]
log reduction at 10 pM (CA09 [1]): 0.22
log reduction at 0.0001 µM (CA09 [1]): 0.8
log reduction at 0.001 µM (CA09 [1]): 0.66
log reduction at 0.01 µM (CA09 [1]): 0.47
log reduction at 0.1 µM (CA09 [1]): -0.1
log reduction at 1 µM (CA09 [1]): 0.49
log reduction at 10 µM (CA09 [1]): 0.73
log reduction at 100 µM (CA09 [1]): 0.23
Cell Death Prophylactic (NHBE cells [3]): C > V

C=C(C)[C@H]1Cc2c(ccc3c2O[C@@H]2COc4cc(OC)c(OC)cc4[C@@H]2C3=O)O1 [Rotenone]
log reduction at 10 pM (CA09 [1]; Therapeutic Drug Treatment, Drug Dose 10 pM, […]): 0.09
log reduction at 0.0001 µM (CA09 [1]; Therapeutic Drug Treatment, Drug Dose 100 pM, […]): 0.15
log reduction at 0.001 µM (CA09 [1]; Therapeutic Drug Treatment, Drug Dose 1 nM, […]): 0.9
log reduction at 0.01 µM (CA09 [1]; Therapeutic Drug Treatment, Drug Dose 10 nM, […]): 0.04
log reduction at 0.1 µM (CA09 [1]; Therapeutic Drug Treatment, Drug Dose 100 nM, […]): 0.07
log reduction at 1 µM (CA09 [1]; Therapeutic Drug Treatment, Drug Dose 1 μM, […]): 0.5
log reduction at 10 µM (CA09 [1]; Therapeutic Drug Treatment, Drug Dose 10 μM, […]): 1.14
log reduction at 100 µM (CA09 [1]; Therapeutic Drug Treatment, Drug Dose 100 μM, […]): -0.05
Cell Death Prophylactic (NHBE cells [3]): C > V
Cell Death Therapeutic (NHBE cells [3]): C > V

Cn1cncc1[C@@](N)(c1ccc(Cl)cc1)c1ccc2c(c1)c(-c1cccc(Cl)c1)cc(=O)n2C [Tipifarnib]
log reduction at 10 pM (CA09 [1]): 0.02
log reduction at 0.0001 µM (CA09 [1]): 0.73
log reduction at 0.001 µM (CA09 [1]): 1.04
log reduction at 0.01 µM (CA09 [1]): 0.6
log reduction at 0.1 µM (CA09 [1]): -0.16
log reduction at 1 µM (CA09 [1]): 1.04
log reduction at 10 µM (CA09 [1]): 1.4
log reduction at 100 µM (CA09 [1]): 0
IC50 (NHBE cells [3]; 72 h, read-out: IC50, Prophylactic Treatment, Control): 12 nM
IC50 (NHBE cells [3]; 72 h, read-out: IC50, Therapeutic Treatment, Control): 13 nM
IC50 (NHBE cells [3]; read-out: IC50, Therapeutic Treatment, Viral Infected): 33 nM

COc1c(O)cc2oc3cc(O)c(CC=C(C)C)c(O)c3c(=O)c2c1CC=C(C)C [α-Mangostin]
viral titers in NHBE cells (validated drug hits) (CA09 [1]): consistent reduction
log reduction at 10 pM (CA09 [1]; Prophylactic Drug Treatment, Drug Dose 10 pM, […]): 0.74
log reduction at 0.0001 µM (CA09 [1]; Prophylactic Drug Treatment, Drug Dose 100 pM, […]): 0.69
log reduction at 0.001 µM (CA09 [1]; Prophylactic Drug Treatment, Drug Dose 1 nM, […]): 0.54
log reduction at 0.01 µM (CA09 [1]; Prophylactic Drug Treatment, Drug Dose 10 nM, […]): 0.65
log reduction at 0.1 µM (CA09 [1]; Prophylactic Drug Treatment, Drug Dose 100 nM, […]): 0.84
log reduction at 1 µM (CA09 [1]; Prophylactic Drug Treatment, Drug Dose 1 μM, […]): 0.71
log reduction at 10 µM (CA09 [1]; Prophylactic Drug Treatment, Drug Dose 10 μM, […]): 1.2
log reduction at 100 µM (CA09 [1]; Prophylactic Drug Treatment, Drug Dose 100 μM, […]): 0.85
Viral Titer Prophylactic (CA09 [1]; […], prophylactic treatment): Reduced
viral titers in NHBE cells (validated drug hits) (CA09 [1]; listed as α-mangostin): consistently reduced
Cell Death Prophylactic (NHBE cells [3]): C > V
Cell Death Therapeutic (NHBE cells [3]): C > V
NHBE cell survival / cell death after infection (NHBE cells [3]): differential effects
NHBE cell survival / cell death after infection (NHBE cells [3]; listed as α-mangostin): differentially affected
weight loss (CA09 [4]): little effect
survival (CA09 [4]): little effect

lipopolysaccharide [LPS]
glycolysis (radiolabeled metabolic substrate assay) (BMDCs [9]): slight increase
other substrate use measures (radiolabeled metabolic substrate assays) (BMDCs [9]): little effect

polyinosinic polycytidylic acid [PolylC]
all metabolites measured in flux assays (BMDCs [10]): extreme drops
